# Measured values: patent US20130303557A1, “PHARMACEUTICAL COMPOSITIONS AND METHODS OF TREATING DRY EYE DISORDERS” (PFIZER INC., priority 2010, published 2013)
# Assays:
# Format in all cases: in vivo
# [1] = test system: MRL/Ipr dry eye mice; experiment: Comparative tear production, CP-690550 versus Restasis, in MRL/Ipr dry eye mice (phenol red thread); settings: CP-690550 0.01% vs Restasis (cyclosporine 0.05%), 2 μl twice a day for 30 days; FIG. 3
# Method: Tear measurement was done using phenol red impregnated thread (Quick Zone®) and baseline measurement was performed before each drug application. Drugs or vehicles were applied at 2 μl, two times a day.
# Vehicle-treated normal C57black/6 and MRL/Ipr dry eye mice were used as normal control and dry eye control, respectively.
# Control animals included normal C57Black/6 mice, and MRL/Ipr mice, treated with PBS vehicle and MRL/Ipr mice treated with Refresh Endura® (vehicle for Restasis) (5-10 mice/group).
# [2] = test system: MRL/Ipr dry eye mice; experiment: Dose response of CP690550 on tear production in MRL/Ipr mice (Formulations 1, 3 and 4); settings: at 2 days after treatment, all comparisons, FIGS. 4-6
# Method: As with Example 4 above, vehicle-treated normal C57black/6 and MRL/Ipr dry eye mice (5-10 mice/group) were used as normal control and dry eye control, respectively. […] Treatment for Formulation 1 was carried for two weeks, at […], twice a day.
# [3] = test system: dry-induced C57 mice; experiment: Induced dry eye mouse model (scopolamine plus fans), tear production; settings: at 2 days of treatment; 1 μl once a day, Formulations 3 and 5; FIGS. 7 and 8
# Method: An injection was prepared comprising 2.5 mg/ml scopolamine (sigma) in injectable saline (1-1.5 ml per animal). In normal C57 mice (200-250) ul of scopolamine was injected four times every 2.5 hrs in alternating hind quarters. The mice were placed in special cages (with holes in front and back) and placed in a hood. Fans were placed in front of each cage, and turned on for 16 hours over night for five days. Measurements were taken daily.
# As with Examples 4 and 5 above, animals were treated with drug or vehicle at 1 μl, once a day for 2 weeks.
smiles,measurement,setting,value
"C[C@@H]1CCN(C(=O)CC#N)C[C@@H]1N(C)c1ncnc2[nH]ccc12 [CP690550, 3-{(3R,4R)-4-Methyl-3-[methyl-(7H-pyrrolo[2,3-d]pyrimidin-4-yl)-amino]-piperidin-1-yl}-3-oxo-propionitrile]",response rate as compared to Restasis,[1],much faster response rate as compared to Restasis®
same,volume of tear production compared with Restasis,[1],significant improvement in the volume of tear production over Restasis®
same,improvement in tear production,[2],significant improvement in tear production
same,increase in tear production,[3],significant increase in tear production
